In brackets after ≈: the same amount, converted by molar mass. Like-named read-outs stand apart in the source and are kept apart here.
What was measured:
Bac. Subt. = assay: MIC, diffusion method in gelose medium at pH 7 (Table I); assay type: cell-based; conditions: Bac. Subt., pH 7; read-out: minimum concentration of inhibition
Experimental: (§1) The antibiotic activity was determined by the diffusion method in a gelose medium at a pH of 7. The following Table expresses the minimum concentration of inhibition in mcg/ml (CMl) for the products against different microbial strains.

Escher. Coli UC 1020 = assay: as above; assay type: cell-based; conditions: Escherichia coli, UC1020; Escher. Coli UC 1020, pH 7; read-out: minimum concentration of inhibition
Experimental: as §1

Escher. Coli UC 1261 = assay: as above; assay type: cell-based; conditions: Escherichia coli, UC1261; Escher. Coli UC 1261, pH 7; read-out: minimum concentration of inhibition
Experimental: as §1

Pseudomonas = assay: as above; assay type: cell-based; conditions: read-out: minimum concentration of inhibition
Experimental: as §1

Staph. U.C. 1128 P(-) = assay: as above; assay type: cell-based; conditions: Staph. UC 1128, penicillin resistant, read-out: minimum concentration of inhibition
Experimental: as §1

[1] = tested on: Staph. aureus oxford U.C. 1061 P(+); assay: as above; assay type: cell-based; conditions: Staphylococcus aureus, UC1061; Staph. aureus oxford UC 1061, penicillin sensitive, pH 7; read-out: minimum concentration of inhibition
Experimental: as §1

Strept. Fecalis 5432 = assay: as above; assay type: cell-based; conditions: Strept. Fecalis 5432, pH 7; read-out: minimum concentration of inhibition
Experimental: as §1

[2] = tested on: Strept. hemoly. Todd Hewitt; assay: as above; assay type: cell-based; conditions: Strept. hemoly. Todd Hewitt, pH 7; read-out: minimum concentration of inhibition
Experimental: as §1

Escherichia coli 3019 = assay: MIC (Table II); assay type: cell-based; conditions: read-out: minimum inhibition concentration
Experimental: as §1
(§2) Using the same procedure as in Table I, the minimum inhibition concentration in mcg/ml was determined against different microbial strains with L(-) cis 7-[D(-)-α-aminophenylacetamido]-3-isopropyl-3-cepheme-4-carboxylic acid (product A) of Example 9.

Escherichia coli 8497 = assay: MIC (Table II); assay type: cell-based; conditions: read-out: minimum inhibition concentration
Experimental: as §1, §2

[3] = tested on: Staphylococcus aureus 017; assay: MIC (Table II); assay type: cell-based; conditions: read-out: minimum inhibition concentration
Experimental: as §1, §2

Shigella sonnei = assay: bactericidal activity (germs still alive); assay type: cell-based; set-up: key to germs still alive: +++: all the germs are still alive; +: it remains some colonies; -: it does not remain any germ
Experimental: (§3) The bactericidal activity of product A was ascertained by determining the number of germs still alive after treatment with increasing doses of antibiotic on a liquid media. From the cultures in tubes having 72 hours (previously described method), were placed on agar in Petri dishes a constant sample of the last tube having grown and of the following tubes where no more growth in transillumination is observed. After 48 hours of culture in the Petri dishes, the number of colonies was ascertained.

[4] = tested on: Staphylococcus aureus 1098; assay: bactericidal activity (germs still alive); assay type: cell-based; set-up: key to germs still alive: +++: all the germs are still alive; +: it remains some colonies; -: it does not remain any germ
Experimental: as §3

[5] = tested on: Staphylococcus aureus 54146; assay: bactericidal activity (germs still alive); assay type: cell-based; set-up: key to germs still alive: +++: all the germs are still alive; +: it remains some colonies; -: it does not remain any germ
Experimental: as §3

[6] = tested on: Staphylococcus aureus 8514; assay: bactericidal activity (germs still alive); assay type: cell-based; set-up: key to germs still alive: +++: all the germs are still alive; +: it remains some colonies; -: it does not remain any germ
Experimental: as §3

[7] = tested on: Staphylococcus aureus 9482; assay: bactericidal activity (germs still alive); assay type: cell-based; set-up: key to germs still alive: +++: all the germs are still alive; +: it remains some colonies; -: it does not remain any germ
Experimental: as §3

[8] = tested on: Diplococcus pneumoniae 735; assay: bactericidal activity (germs still alive); assay type: cell-based; set-up: key: +++: all the germs are still alive; +: it remains some colonies; -: it does not remain any germ
Experimental: as §3

Escherichia coli 070 = assay: bactericidal activity (germs still alive); assay type: cell-based; set-up: key: +++: all the germs are still alive; +: it remains some colonies; -: it does not remain any germ
Experimental: as §3

Escherichia coli 4965 = assay: bactericidal activity (germs still alive); assay type: cell-based; set-up: key: +++: all the germs are still alive; +: it remains some colonies; -: it does not remain any germ
Experimental: as §3

[9] = tested on: Streptococcus hemolyticus 905; assay: bactericidal activity (germs still alive); assay type: cell-based; set-up: key: +++: all the germs are still alive; +: it remains some colonies; -: it does not remain any germ
Experimental: as §3

[10] = tested on: Streptococcus hemolyticus 920; assay: bactericidal activity (germs still alive); assay type: cell-based; set-up: key: +++: all the germs are still alive; +: it remains some colonies; -: it does not remain any germ
Experimental: as §3

oral toxicity in rats = conditions: rat, in vivo
Experimental: The oral toxicity of product A was determined on homogenous groups of 10 male rats weighing 100 to 110 g by administering orally a 0.25% by weight dispersion of product A in an aqueous suspension of carboxymethyl cellulose with an esophagus probe. […] The rats in the test were held in a place in which the air was filtered and sterilized by ultraviolet light and the temperature was held at 22° ± 1° C with a controlled humidity.

[11] = transcutaneous toxicity in rats; conditions: rat, in vivo, topical or ocular, male rats
solubility = assay type: physicochemical

SMILES: CC(C)C1=C(C(=O)O)N2C(=O)[C@@H](NC(=O)[C@H](N)c3ccccc3)[C@H]2SC1 [Example 9, L (+) cis 7-[D (-)-α-aminophenylacetamido]-3-isopropyl-3-cepheme-4-carboxylic acid]
- MIC (Bac. Subt.): 0.2 µg/mL (≈ 0.533 µM)
- MIC (Escher. Coli UC 1020): 100 µg/mL (≈ 266 µM)
- MIC (Escher. Coli UC 1261): 40 to 100 µg/mL (≈ 107 to 266 µM)
- MIC (Pseudomonas): > 100 µg/mL
- MIC (Staph. U.C. 1128 P(-)): 2 µg/mL (≈ 5.33 µM)
- MIC [1]: 0.4 µg/mL (≈ 1.07 µM)
- MIC (Strept. Fecalis 5432): 20 µg/mL (≈ 53.3 µM)
- MIC [2]: 10 µg/mL (≈ 26.6 µM)
- MIC (Escherichia coli 3019; 24h): 30 µg/mL (≈ 79.9 µM)
- MIC (Escherichia coli 3019; 48h): 40 µg/mL (≈ 107 µM)
- MIC (Escherichia coli 3019; 72h): 40 µg/mL (≈ 107 µM)
- MIC (Escherichia coli 8497; 24h): 100 µg/mL (≈ 266 µM)
- MIC (Escherichia coli 8497; 48h): 100 µg/mL (≈ 266 µM)
- MIC (Escherichia coli 8497; 72h): 100 µg/mL (≈ 266 µM)
- MIC ([3]; 24h): 2 µg/mL (≈ 5.33 µM)
- MIC ([3]; 48h): 5 µg/mL (≈ 13.3 µM)
- MIC ([3]; 72h): 15 µg/mL (≈ 40 µM)
- germs still alive (Shigella sonnei; 20 μg/ml): +++
- germs still alive (Shigella sonnei; 30 μg/ml): +
- number of colonies (Shigella sonnei; 40 μg/ml): 9 colonies
- germs still alive (Shigella sonnei; 60 μg/ml): -
- germs still alive ([4]; 1 μg/ml): +++
- germs still alive ([4]; 2 μg/ml): +++
- number of colonies ([4]; 3 μg/ml): 1 colonies
- germs still alive ([4]; 5 μg/ml): -
- germs still alive ([5]; 1 μg/ml): +++
- germs still alive ([5]; 2 μg/ml): +
- number of colonies ([5]; 3 μg/ml): 3 colonies
- germs still alive ([5]; 5 μg/ml): -
- germs still alive ([6]; 1 μg/ml): +++
- germs still alive ([6]; 2 μg/ml): +++
- number of colonies ([6]; 3 μg/ml): a few
- germs still alive ([6]; 5 μg/ml): -
- germs still alive ([7]; 1 μg/ml): +++
- number of colonies ([7]; 2 μg/ml): 1 colonie
- number of colonies ([7]; 3 μg/ml): 2 colonies
- germs still alive ([7]; 5 μg/ml): -
- germs still alive ([8]; 1 μg/ml): +++
- germs still alive ([8]; 2 μg/ml): -
- germs still alive ([8]; 3 μg/ml): -
- germs still alive (Escherichia coli 070; 30 μg/ml): +++
- germs still alive (Escherichia coli 070; 40 μg/ml): -
- germs still alive (Escherichia coli 4965; 30 μg/ml): +++
- germs still alive (Escherichia coli 4965; 40 μg/ml): -
- germs still alive ([9]; 1 μg/ml): +++
- germs still alive ([9]; 2 μg/ml): -
- germs still alive ([9]; 3 μg/ml): -
- germs still alive ([10]; 2 μg/ml): +++
- germs still alive ([10]; 3 μg/ml): -
- LD50 (oral toxicity in rats): > 800 mg/kg
- abnormal symptoms (oral toxicity in rats; 800 mg/kg): none of the rats presented any abnormal symptoms
- LD50 at 192 h [11]: > 1600 mg/kg
- solubility in ethanol (solubility; ethanol): slightly soluble
- solubility in ether (solubility; ether): insoluble
